Data published in patent publication US20240335401A1, “SUBSTITUTED PHENETHYLAMINE FOR TREATING INFLAMMATION AND PSYCHOLOGICAL DISORDERS” (SYNAPTIVE THERAPEUTICS LLC, priority 2022, published 2024).

Experiments:
TNFa in circulation = experiment: LPS-induced inflammatory response in mice, TNFa in circulation; assay type: in vivo; settings: mice injected with LPS; subcutaneous administration; FIG. 1
Procedure: FIG. 1 is a graph showing the level of TNF-α in serum of mice injected with LPS to induce inflammation and administered 2C-H or control vehicle.
(§1) In another experiment, mice were also injected with a toxic level of LPS to initiate a lethal septic event, which was attenuated by administration of 2C-H (FIG. 2).

[1] = system: mice injected with a toxic level of LPS; experiment: Lethal septic event after a toxic level of LPS in mice; assay type: in vivo; settings: FIG. 2
Procedure: FIG. 2 is a plot showing % mice that died after injection of a toxic level of LPS when administered 2C-H or vehicle control.
as §1

[2] = taken recreationally; cited from earlier work
mice [3] = experiment: EPM apparatus, time spent on the open arms (anxiety); assay type: in vivo; settings: sub-hallucinogenic dose, EPM for 5 minutes, compared to saline, FIG. 4
Procedure: FIG. 4 is a graph showing the time spent on the open arm by mice treated with 2C-B for increasing amounts of time.
(§2) Mice were administered increasing amounts of 2C-B to identify sub-hallucinogenic doses (FIG. 3). It was determined that a dose of 0.025 mg/kg can be orally administered to mice without showing any signs of hallucination. Mice were then administered 2C-B for increasing amounts of time, then placed on the EPM apparatus for 5 minutes and time spent on the open arms obtained. As it can be seen in FIG. 4, the sub-hallucinogenic dose of 2C-B was capable of reducing anxiety in mice.

mice [4] = experiment: Signs of hallucination in mice at increasing doses; assay type: in vivo; settings: oral, FIG. 3
Procedure: FIG. 3 is a plot of % mice showing sign of hallucination at increasing doses of 2C-B.
as §2

## COc1ccc(OC)c(CCN)c1 [2C-H]
TNFa in circulation
  inflammatory response (measured by TNFa in circulation): quickly quelled
[1]
  lethal septic event (% mice that died): attenuated

## CCc1cc(OC)c(CCN)cc1OC [2C-E, 4-Ethyl-2,5-dimethoxyphenethylamine]
[2]
  threshold unit dose that can cause psychedelic activity: about 2 mg

## COc1cc(CCN)c(OC)cc1I [2C-I, 2-(4-lodo-2,5-dimethoxyphenyl)ethan-1-amine]
[2]
  threshold unit dose that can cause psychedelic activity: about 2 mg

## COc1cc(CCN)c(OC)cc1Br [2C-B, 4-Bromo-2,5-dimethoxyphenethylamine]
Mice [3]
  time spent on the open arm: increased time spent on the open arm compared to saline
Mice [4]
  dose that can be orally administered without showing any signs of hallucination: 0.025 mg/kg
[2]
  threshold unit dose that can cause psychedelic activity: about 5 mg
